Measurements as given in US20260137692A1, “METHODS AND COMPOSITIONS FOR TREATING AND MANAGING ALZHEIMER'S DISEASE” (PHARMATROPHIX, INC., priority 2024, published 2026).

Tested on: patients with mild to moderate Alzheimer's Disease
Assay: Phase IIa trial: ADAS-Cog
Format: in vivo, human
Settings: ITT
Protocol: Exploratory outcome evaluations involved the assessment of cognitive and clinical function (Table 4). […] Items from the Neurological Testing Battery (NTB), together with the ADAS-Cog 13, Spatial Navigation Test (AMUNET) were performed at Baseline, Week 12 and Week 26 (Visits 2, 4 and 5). While the MMSE was used primarily as a screening and baseline disease staging tool, its repeated administration at Week 26 provided an additional exploratory cognitive outcome measure. The Geriatric Depression Scale (GDS) was assessed at each Visit (Screening, Baseline, Week 4, 12, 26: Visits 1-5) and the Clinical Global Impression test (CGI) with Severity was assessed at Screening (Visit 1) and then the Improvement was subsequently assessed at Weeks 12 and 26 (Visits 4 and 5). For each test, whether categorical or numeric, all raw scores were considered interval in nature. The change from Screening (Week −8) or Baseline (Week 0) was therefore be derived for each patient. Actual values at each Visit and Changes from Screening/Baseline were summarized.
Alzheimer's Disease Assessment Scale-13 items (total score=85) is used as a parameter for exploratory outcome analysis. ADAS-cog is a psychometric instrument designed to evaluate the severity of cognitive and non-cognitive behavioral dysfunctions characteristic of people with AD. The cognitive portion assesses memory, language and praxis functions. Most items are rated on a scale of 0 to 5, where 0 indicates no impairment and 1 to 5 indicates very mild (1), mild (2), moderate (3), moderately severe (4) or severe impairment (5) respectively. Other items are rated on the presence or absence of a characteristic number of errors or severity of errors. The total scores from the ADAS-cog sub-scales range from 0 (no impairment) to 85 (errors in all sub-tests).
A positive (i.e., increasing) change of the score indicates cognitive worsening.
ADAS-Cog was assessed at Visits 2, 4 and 5, as well as at the early discontinuation Visit, if applicable.

For `CC[C@H](C)[C@H](N)C(=O)NCCN1CCOCC1` [LM11A-31-BHS, Tris[(2S,3S)-2-amino-3-methyl-N-(2-morpholinoethyl)pentanamide]tetra(monohydrogensulfate), monosulfate], the “progression compared to placebo in the LS mean ADAS-cog-13 score, increased by” value (200 mg group, 26-week treatment period, not statistically significant) was 7.1%, the “ADAS-cog-6 score progression compared to placebo, increased by” value (200 mg group, 26 weeks) was 7.1% and the “progression compared to placebo of the LS mean ADAS-cog-11 score, decreased by” value (200 mg group, 26 weeks) was 9.8%. The “progression compared to placebo in the LS mean ADAS-cog-13 score, decreased by” value (400 mg group, 26-week treatment period, not statistically significant) was 35.3%, the “ADAS-cog-6 score progression compared to placebo, decreased by” value (400 mg group, 26 weeks) was 31.4% and the “progression compared to placebo of the LS mean ADAS-cog-11 score, decreased by” value (400 mg group, 26 weeks) was 42.7%.
